Experimental data taken from US10344019B2 (priority 2010, dated 2019).

What was measured:
Experiment in all cases: microbe, parasite or virus in culture
Type in all cases: cell-based
[1] = tested on: HCV 1b RLuc cells (dicistronic genotype 1b Con1 replicon, RLuc reporter); settings: Hepatitis C virus, read-out: 1b (nM)
Procedure, shortened: (§1)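 Replicons used: genotype 1b Con1, 1a H77, 2a JFH-1, and a 2a JFH-1 chimera with J6-strain NS5A (M31 present), all dicistronic.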

[2] = tested on: HCV 4a Rluc cells (NS5A chimeric genotype 1b Con1 replicon with genotype 4a NS5A gene); settings: Hepatitis C virus, read-out: 4a
Procedure, shortened: (§2)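 Replicon cells stably carrying the listed RLuc-encoding dicistronic replicons were seeded and treated with DMSO serial dilutions of compound (10 mM stocks) diluted into culture medium. After 72 h, cells were lysed and Renilla luciferase activity measured. EC50 was derived by non-linear regression.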

[3] = tested on: HCV 2a JFH-1 Rluc cells (dicistronic genotype 2a JFH-1 replicon, RLuc reporter); settings: Hepatitis C virus, genotype 2a JFH-1 replicon; read-out: 2a JFH
Procedure, shortened: as §1

[4] = tested on: HCV 3a RLuc cells (NS5A chimeric genotype 1b Con1 replicon with consensus genotype 3a NS5A gene); settings: Hepatitis C virus, read-out: 3a, genotype 3a replicon
Procedure, shortened: as §2

[5] = tested on: HCV 1a RLuc cells (dicistronic genotype 1a H77 replicon, RLuc reporter); settings: Hepatitis C virus, genotype 1a replicon; read-out: 1a
Procedure, shortened: as §1

SMILES	EC50 [1]	EC50 [2]	EC50 [3]	EC50 [4]	EC50 [5]
COC(=O)N[C@@H](C(=O)N1[C@@H]2CC[C@@H](C2)[C@H]1c1ncc(-c2ccc(-c3ccc4c(ccc5nc([C@@H]6C[C@H]7C[C@H]7N6C(=O)[C@H](NC(=O)OC)c6ccccc6)[nH]c54)c3)cc2)[nH]1)c1ccccc1 [Example 334]	0.009 nM	1 to 990 pM	1 to 999 pM	1 to 990 pM	1 to 999 pM
COC(=O)N[C@H](C(=O)N1[C@@H]2C[C@@H]2C[C@H]1c1nc2ccc3cc(-c4ccc(-c5cnc([C@@H]6[C@H]7CC[C@H](C7)N6C(=O)[C@@H](NC(=O)OC)C6CCOCC6)[nH]5)cc4)ccc3c2[nH]1)C(C)C [Example 335]	0.027 nM	1 to 990 pM	1 to 999 pM	1 to 990 pM	1 to 999 pM
COC(=O)N[C@H](C(=O)N1[C@@H]2C[C@@H]2C[C@H]1c1nc2ccc3cc(-c4ccc(-c5cnc([C@@H]6[C@H]7CC[C@H](C7)N6C(=O)[C@@H](NC(=O)OC)[C@@H](C)OC)[nH]5)cc4)ccc3c2[nH]1)C(C)C [Example 336]	0.013 nM	1 to 990 pM	1 to 999 pM	1000 to 4990 pM	1 to 999 pM
COC(=O)N[C@H](C(=O)N1[C@@H]2C[C@@H]2C[C@H]1c1nc2ccc3cc(-c4ccc(-c5cnc([C@@H]6[C@H]7CC[C@H](C7)N6C(=O)[C@H](NC(=O)OC)c6ccccc6)[nH]5)cc4)ccc3c2[nH]1)C(C)C [Example 337]	0.01 nM	1 to 990 pM	1 to 999 pM	1 to 990 pM	1 to 999 pM
COC(=O)N[C@H](C(=O)N1[C@H]2CC[C@H](C2)[C@H]1c1nc2ccc3cc(-c4ccc5c(ccc6nc([C@@H]7CCCN7C(=O)[C@@H](NC(=O)OC)C7CCOCC7)[nH]c65)c4)ccc3c2[nH]1)C(C)C [Example 338]	0.127 nM	1 to 990 pM	1 to 999 pM	1 to 990 pM	1 to 999 pM
COC(=O)N[C@H](C(=O)N1[C@@H]2CC[C@@H](C2)[C@H]1c1nc2ccc3cc(-c4ccc(-c5cnc([C@@H]6C[C@H]7C[C@H]7N6C(=O)[C@@H](NC(=O)OC)C(C)C)[nH]5)cc4)ccc3c2[nH]1)C(C)C [Example 340]	0.013 nM	1 to 990 pM	1 to 999 pM	1 to 990 pM	1 to 999 pM
COC(=O)N[C@H](C(=O)N1CCC[C@H]1c1ncc(-c2cc3c(cc2F)-c2ccc(-c4cnc([C@@H]5CCCN5C(=O)[C@@H](NC(=O)OC)C(C)C)[nH]4)c(F)c2CO3)[nH]1)C(C)C [Example 341]	0.006 nM	1 to 990 pM	1 to 999 pM	1 to 990 pM	1 to 999 pM
CC#Cc1cc(-c2cnc([C@@H]3CCCN3C(=O)[C@@H](NC(=O)OC)C(C)C)[nH]2)ccc1-c1ccc(-c2cnc([C@@H]3CCCN3C(=O)[C@@H](NC(=O)OC)C(C)C)[nH]2)cc1 [Example 342]	0.01 nM	1 to 990 pM	1 to 999 pM	1 to 990 pM	1 to 999 pM
COC(=O)N[C@H](C(=O)N1[C@@H]2C[C@@H]2C[C@H]1c1nc2ccc3cc(-c4ccc5c(ccc6nc([C@@H]7[C@H]8CC[C@H](C8)N7C(=O)[C@H](NC(=O)OC)c7ccccc7)[nH]c65)c4)ccc3c2[nH]1)C(C)C [Example 343]	0.012 nM	1 to 990 pM	1 to 999 pM	1 to 990 pM	1 to 999 pM
COC(=O)N[C@H](C(=O)N1[C@@H]2CC[C@@H](C2)[C@H]1c1nc2ccc3cc(-c4ccc5c(ccc6nc([C@@H]7C[C@H]8C[C@H]8N7C(=O)[C@H](NC(=O)OC)c7ccccc7)[nH]c65)c4)ccc3c2[nH]1)C(C)C [Example 344]	0.01 nM	1 to 990 pM	1 to 999 pM	1 to 990 pM	1 to 999 pM
CC#Cc1cc(-c2cnc([C@@H]3CCCN3C(=O)[C@@H](NC(=O)OC)C(C)C)[nH]2)ccc1-c1ccc(-c2cnc([C@@H]3CCCN3C(=O)[C@@H](NC(=O)OC)C3CCOCC3)[nH]2)cc1 [Example 347]	0.055 nM	1 to 990 pM	1 to 999 pM	1 to 990 pM	1 to 999 pM
CC#Cc1cc(-c2cnc([C@@H]3CCCN3C(=O)[C@@H](NC(=O)OC)C(C)C)[nH]2)ccc1-c1ccc(-c2cnc([C@@H]3CCCN3C(=O)[C@H](NC(=O)OC)c3ccccc3)[nH]2)cc1 [Example 348]	0.011 nM	1 to 990 pM	1 to 999 pM	1 to 990 pM	1 to 999 pM
